Experimental data as given in PMC10044445, “Tuning the Anthranilamide Peptidomimetic Design to Selectively Target Planktonic Bacteria and Biofilm” (Antibiotics, 2023).
≈ marks a conversion by molar mass, not a printed value. Read-outs that look alike come from different tables or passages of the source.

Legend:
E. coli [1] = tested on: E. coli; parameters: method as in PMID 30070287; settings: cited from earlier work
S. aureus [2] = tested on: S. aureus; parameters: method as in PMID 30070287; settings: cited from earlier work
MRC-5 human fibroblasts [3] = tested on: MRC-5 human fibroblasts; parameters: method as in PMID 30070287; settings: cited from earlier work
S. aureus biofilms = assay: Disruption of established biofilm, crystal violet staining; type: cell-based; settings: 24 h treatment
Description: (§1) Bacteria in biofilms are 10–1000 times more resistant to conventional antibiotics than planktonic bacteria. Moreover, biofilms are insensitive to antiseptics and many host immune responses. Since up to 80% of all microbial infections are biofilm-related, an effective antibacterial agent should also be able to disrupt established biofilms to tackle bacterial infections.
(§2) Bacterial cultures (S. aureus and E. coli) were grown in MHB media overnight at 37 °C with shaking at 120 rpm. Cultures were diluted (1:20) in an MHB medium and 200 μL aliquots were dispensed to flat bottom 96-well plate wells (Sarstedt, Mawson Lakes, Australia). Cultures were supplemented with varying concentrations of synthetic compounds dissolved in DMSO. Biofilm was grown in a 96-well plate for 24 h followed by the addition of synthetic compounds and incubated further for 24 h. Plates were sealed with self-adhesive microplate sealers (TopSeal-A, PerkinElmer) to allow air diffusion and to prevent condensation. Biofilms adhered on polystyrene substratum were quantified by crystal violet staining as described previously. The experiment was performed in triplicate.
Figure 4 Disruption of established biofilms of S. aureus after 24 h treatment with 1× to 8× MIC concentrations of compounds 13d, 16b, 19a, 19b. The positive control represents the pre-established biofilms without any compounds. Error bars indicate the standard error of the mean (SEM) of three independent experiments.

[4] = tested on: Bacillus subtilis strain BS23; assay: Membrane integrity study, epifluorescence microscopy (atpA-GFP); type: cell-based; settings: 50 μM, 45 min
Description: The mechanism of action of compounds 16b, 19a, and […] was further studied using Bacillus subtilis strain BS23, which contains a fusion of green fluorescence protein (GFP) to the α-subunit of the membrane-localized ATP synthase. In the assay, if the compounds damage the membrane, the green fluorescence will change from a uniform distribution to a clustered distribution. Epifluorescence microscopy was used to image the changes in the cells.
Bacillus subtilis BS23 (atpA-GFP) was grown in LB (10 g/L Tryptone, 5 g/L Yeast Extract, 5 g/L NaCl) supplemented with 0.5% (w/v) xylose at 37 °C, to an OD600 of 0.3 and then treated with 50 μM of the AMP mimics, 10 μg/mL of colistin or 0.25% (v/v) DMSO (vehicle control). The cells were grown for a further 45 min before being examined by epifluorescence microscopy. Micrographs were background subtracted, merged, and aligned in images.
Figure 3 Epifluorescence microscopy images showing membrane integrity of B. subtilis strain BS23 treated with colistin (10 µg/mL) and compounds 16b, 19a, and 19b (50 µM).

S. aureus [5] = assay: Minimum inhibitory concentration, broth microdilution (CLSI); type: cell-based, Staphylococcus aureus; settings: for MIC: Table 2, lysine derivative versus parent, read-out: MIC S. aureus; for MIC90: broth microdilution in MHB, 18–24 h
Description: (§3) The antimicrobial activity of the compounds was evaluated by a broth microdilution assay using the procedure described by CLSI. Briefly, bacteria were grown to mid-log phase in Muller Hinton broth (MHB) with shaking at 120 rpm and incubated at 37 °C for 12–16 h. Following incubation, bacteria were washed three times in PBS pH 7.4 at 3500 g for 10 min. After washing, bacteria were diluted with fresh MHB. The turbidity of the bacterial suspensions was adjusted so that OD660nm was 0.1, which gave 1 × 10^8 CFU/mL, and then further diluted to achieve 5 × 10^5 CFU/mL as a final bacterial concentration. Each compound was diluted (250–3.9 µM) through two-fold dilution. Wells in microtiter plates were loaded with 100 µL of inoculum containing 5 × 10^5 CFU/mL bacteria. Wells without any compound and containing only bacteria were used as negative controls (i.e., no inhibition of growth). Wells with media only were set as blank. The microtiter plate was wrapped with paraffin to prevent evaporation and incubated with shaking at 120 rpm and 37 °C for 18–24 h. After incubation, spectrophotometric readings were taken. The well without any bacterial growth and showing zero spectrophotometric reading was regarded as the MIC of the compounds.

S. aureus 38 = assay: Cytoplasmic membrane permeability (depolarization) assay with DiSC3(5); type: cell-based; settings: 2× MIC
Description: (§4) Compounds 13d (series I), 16b (series II), 19a (series III) and 19b (series III) were selected as representative examples of each series with strong antibacterial activities (particularly against S. aureus). As AMPs are known to be membrane-targeting, membrane permeability assays are frequently used to confirm the mode of action of peptidomimetics. In this assay, S. aureus and E. coli were treated with the active compounds in the presence of the membrane potential-sensitive cyanine dye 3,3′-dipropylthiadicarbocyanine iodide (DiSC3(5)). Perturbation of the membrane by the compounds leads to loss of the membrane potential gradient (depolarization), causing the dye to be released into the medium and resulting in an increase in fluorescence intensity.
(§5) The method was adopted from Wu et al. with slight modifications. Bacterial cytoplasmic membrane permeability was determined using membrane potential sensitive dye diSC3-5 (3,3′-dipropylthiadicarbocyanine iodide) which penetrates inside bacterial cells depending on the membrane potential gradient of the cytoplasmic membrane. Bacteria were grown in MHB to mid-log phase by incubating with shaking at 37 °C for 18–24 h. Following incubation, bacteria were washed with 5 mM HEPES containing 20 mM glucose pH 7.2 and resuspended in the same buffer to an OD600 0.05–0.06 which gave 1 × 10^7 CFU/mL. The dye diSC3-5 was added at 4 µM to the bacterial suspension. The suspensions were incubated at room temperature for 1 h in the dark for maximum dye take-up by the bacterial cells. Then, 100 mM KCl was added to balance the K+ outside and inside the bacterial cell to prevent further uptake or outflow of the dye. For Gram-negative bacteria, 0.5 mM EDTA was used to destabilize the lipopolysaccharides-Mg^2+-Ca^2+ complex to help in dye penetration without affecting bacterial growth. A total of 100 µL of bacterial suspension was added to 96-well microtiter plate and with equal volume of antimicrobial compounds. DMSO (20%) was set as a positive control while dye and only bacterial cells were set as a negative control. Fluorescence was measured with a luminescence spectrophotometer at 3 min intervals at an excitation wavelength of 622 nm and an emission wavelength of 670 nm.
(§6) Figure 2 Cytoplasmic membrane depolarization of S. aureus 38 and E. coli K12 by 13d, 16b, 19a, 19b, as assessed by release of the membrane potential-sensitive dye DiSC3(5) measured spectroscopically at λex = 622 nm and λem = 670 nm at 2× MIC concentration. Data are presented as means (±SD) of three independent repeats. 20% DMSO was used as a positive control.

E. coli biofilms = assay: Disruption of established biofilm, crystal violet staining; type: cell-based; settings: 24 h treatment; for disruption of established E. coli biofilm (in words): 1× to 8× MIC; for disruption of E. coli biofilm mass: 2× MIC (62.4 µM)
Description: as §1, §2
Figure 5 Disruption of established biofilm of E. coli after 24 h treatment with 1× to 8× MIC concentrations of compounds 13d, 16b, 19a, and 19b. The negative control represents pre-established biofilms without any compounds. Error bars indicate the standard error of the mean (SEM) of three independent experiments.

E. coli [6] = assay: Minimum inhibitory concentration, broth microdilution (CLSI); type: cell-based, Escherichia coli; settings: for MIC / MIC90: Escherichia coli; for MIC: Table 2, lysine derivative versus parent, read-out: MIC E. coli; for MIC90: broth microdilution in MHB, 18–24 h
Description: as §3

MRC-5 human fibroblasts [7] = assay: Toxicity assay, Alamar Blue; type: cell-based; settings: for IC50: MRC5, MRC-5 human fibroblasts, 72 h drug incubation, Alamar Blue
Description: Normal human lung fibroblasts MRC-5 were cultured in minimal essential medium (MEM, Invitrogen) supplemented with 10% foetal calf serum (FCS), 1% L-glutamine–penicillin–streptomycin, 2% sodium bicarbonate, 1% non-essential amino acids (NEAA), and 1% sodium pyruvate. The cell line was maintained at 37 °C in 5% CO2 as an adherent monolayer and was passaged upon reaching confluence by standard cell culture techniques. MRC-5 cells were seeded at 2 × 10^4 cells per well in 96-well plates to ensure full confluence (quiescence). Cells were treated for 24 h after seeding with 0.1 to 1000 μM of compounds. After 72 h of drug incubation, the treated media was replaced with fresh media containing 10% Alamar Blue and the cells were incubated for another 6 h. The metabolic activity was detected by spectrophotometric analysis by assessing the absorbance of Alamar blue as previously described by Pasquier et al. Cell proliferation was determined and expressed as a percentage of untreated control cells. The determination of IC50 values was performed using GraphPad Prism 6 (San Diego, CA, USA). Each experiment was performed in triplicate and was repeated in three independent experiments.

E. coli K12 = assay: Cytoplasmic membrane permeability (depolarization) assay with DiSC3(5); type: cell-based; settings: 2× MIC
Description: as §4, §5, §6

Compound | disruption of established S. aureus biofilm (S. aureus biofilms; 2× MIC (31.2 µM)) | disruption of established S. aureus biofilm (S. aureus biofilms; 8× MIC (125 µM)) | membrane damage (clustering of GFP fluorescence) [4] | MIC (S. aureus [5]; Staphylococcus aureus) | MIC90 (S. aureus [5]; Staphylococcus aureus) | cytoplasmic membrane depolarization (DiSC3(5) release) (S. aureus 38) | disruption of established E. coli biofilm (in words) (E. coli biofilms) | disruption of E. coli biofilm mass (E. coli biofilms) | MIC (E. coli [6]) | MIC90 (E. coli [6]) | IC50 (MRC-5 human fibroblasts [7]) | disruption of established S. aureus biofilm (S. aureus biofilms; 4× MIC (15.6 µM)) | cytoplasmic membrane depolarization (DiSC3(5) release) (E. coli K12) | also measured
NCCNC(=O)[C@H](Cc1c[nH]c2ccccc12)NC(=O)c1cc(Br)ccc1NC(=O)c1ccc2ccccc2c1 [Compound 12a] | – | – | – | – | – | – | – | – | – | – | – | – | – | MIC E. coli (E. coli [1]; Table 2, parent compound): > 125 µM; MIC90 E. coli (E. coli [1]; value of earlier paper): > 125 µM; MIC S. aureus (S. aureus [2]; Table 2, parent compound): 3.9 µM (≈ 2.33 µg/mL); MIC90 S. aureus (S. aureus [2]; value of earlier paper): 3.9 µM (≈ 2.33 µg/mL); IC50 (MRC-5 human fibroblasts [3]): < 20 µM
NCCCC[C@H](N)C(=O)NCCNC(=O)[C@H](Cc1c[nH]c2ccccc12)NC(=O)c1cc(Br)ccc1NC(=O)c1cccc(-c2ccccc2)c1 [Compound 19b, N-(4-bromo-2-(((S)-1-((2-((S)-2,6-diaminohexanamido)ethyl)amino)-3-(1H-indol-3-yl)-1-oxopropan-2-yl)carbamoyl)phenyl)-[1,1′-biphenyl]-3-carboxamide] | over 60% | ~99% | caused membrane damage | 15.6 µM (≈ 11.7 µg/mL) | 15.6 µM (≈ 11.7 µg/mL) | reversed trend | significant disruption | little effect | 15.6 µM (≈ 11.7 µg/mL) | 15.6 µM (≈ 11.7 µg/mL) | 164 µM | – | – | MIC90 (S. aureus [5]): 15.6 µM (≈ 11.7 µg/mL); therapeutic window: IC50 to human cells over MIC90 (MRC-5 human fibroblasts [7]; IC50 MRC-5 versus MIC90 for either S. aureus or E. coli): over 10 times
COc1cc2ccccc2cc1C(=O)Nc1ccc(Br)cc1C(=O)N[C@@H](Cc1c[nH]c2ccccc12)C(=O)NCCCN [Compound 13d, (S)-N-(2-((1-((3-aminopropyl)amino)-3-(1H-indol-3-yl)-1-oxopropan-2-yl)carbamoyl)-4-bromophenyl)-3-methoxy-2-naphthamide] | – | – | – | – | 3.9 µM (≈ 2.51 µg/mL) | relatively inactive | significant disruption | 59% | – | 62.5 µM (≈ 40.2 µg/mL) | – | 75% | relatively inactive | disruption of established S. aureus biofilm (S. aureus biofilms; 8× MIC (31.2 µM)): 99%
NCCCC[C@H](N)C(=O)NCCNC(=O)[C@H](Cc1c[nH]c2ccccc12)NC(=O)c1cc(Br)ccc1NC(=O)c1ccc2ccccc2c1 [Compound 19a, N-(4-bromo-2-(((S)-1-((2-((S)-2,6-diaminohexanamido)ethyl)amino)-3-(1H-indol-3-yl)-1-oxopropan-2-yl)carbamoyl)phenyl)-2-naphthamide] | over 60% | ~99% | caused membrane damage | 15.6 µM (≈ 11.3 µg/mL) | 15.6 µM (≈ 11.3 µg/mL) | – | not effective | – | 15.6 µM (≈ 11.3 µg/mL) | 15.6 µM (≈ 11.3 µg/mL) | 83.9 µM | – | greater membrane disruption in E. coli than in S. aureus | improvement in antibacterial activity against E. coli compared to the parent compound (E. coli [6]; versus parent 12a, 12j): > 16 fold
NCCNC(=O)[C@H](Cc1c[nH]c2ccccc12)NC(=O)c1cc(-c2ccc3ccccc3c2)ccc1N [Compound 16b, (S)-2-amino-N-(1-((2-aminoethyl)amino)-3-(1H-indol-3-yl)-1-oxopropan-2-yl)-5-(naphthalen-2-yl)benzamide] | – | – | caused membrane damage | – | 3.9 µM (≈ 1.92 µg/mL) | – | not effective | – | – | 31.2 µM (≈ 15.3 µg/mL) | 24.6 µM | 93% | – | –
